# Test results: ChEMBL document CHEMBL1138912, “Dipeptidyl nitriles as human dipeptidyl peptidase I inhibitors” (Bioorg Med Chem Lett, 2006)
# Calls of active or inactive are those of the source. No cut-off for these calls is given here.
# Assays:
# [1] = target: T1, Dipeptidyl peptidase 1 (Homo sapiens, UniProt P53634); assay: Residual activity at human DPP1 at 10 uM
# [2] = target: T1, Dipeptidyl peptidase 1; assay: Inhibition of human DPP1
# [3] = Metabolic stability in rat liver microsomes after 15 min; type: ADME, Microsome; details: read-out: Stability
# [4] = target: T1, Dipeptidyl peptidase 1; assay: Inhibition of human DPP1 at 20 uM
# [5] = target: Cytochrome P450 2C9 (Homo sapiens, UniProt P11712); assay: Inhibition of CYP2C9; type: ADME
# Sequence of Cytochrome P450 2C9 (P11712 whole entry): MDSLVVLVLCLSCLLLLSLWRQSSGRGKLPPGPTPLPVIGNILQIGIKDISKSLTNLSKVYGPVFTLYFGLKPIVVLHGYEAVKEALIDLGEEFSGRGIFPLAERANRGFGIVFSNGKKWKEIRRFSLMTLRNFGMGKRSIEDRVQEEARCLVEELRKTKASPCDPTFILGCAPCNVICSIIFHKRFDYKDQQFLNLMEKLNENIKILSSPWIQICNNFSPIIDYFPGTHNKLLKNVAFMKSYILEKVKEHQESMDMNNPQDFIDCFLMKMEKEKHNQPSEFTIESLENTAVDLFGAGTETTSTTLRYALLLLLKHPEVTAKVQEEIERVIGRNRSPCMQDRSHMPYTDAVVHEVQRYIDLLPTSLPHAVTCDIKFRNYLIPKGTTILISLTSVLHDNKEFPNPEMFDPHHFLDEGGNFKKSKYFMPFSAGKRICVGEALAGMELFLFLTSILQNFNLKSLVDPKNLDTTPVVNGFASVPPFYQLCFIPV
# [6] = target: T2, Pro-cathepsin H (Homo sapiens, UniProt P09668); assay: Inhibition of Cathepsin H
# T2 sequence (P09668 whole entry): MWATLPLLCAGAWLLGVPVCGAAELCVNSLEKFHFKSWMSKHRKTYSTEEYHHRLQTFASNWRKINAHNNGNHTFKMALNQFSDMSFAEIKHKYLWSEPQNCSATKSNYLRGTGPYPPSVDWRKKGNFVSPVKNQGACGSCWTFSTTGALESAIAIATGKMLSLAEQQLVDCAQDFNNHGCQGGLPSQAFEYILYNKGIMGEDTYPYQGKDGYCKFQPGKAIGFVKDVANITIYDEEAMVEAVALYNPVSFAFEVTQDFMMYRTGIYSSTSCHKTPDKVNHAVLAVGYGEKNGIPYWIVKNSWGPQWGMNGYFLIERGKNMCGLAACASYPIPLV
# [7] = target: Cathepsin B (Homo sapiens, UniProt P07858); assay: Inhibition of Cathepsin B
# [8] = target: Cytochrome P450 2C19 (Homo sapiens, UniProt P33261); assay: Inhibition of CYP2C19; type: ADME
# Sequence of Cytochrome P450 2C19 (P33261 whole entry): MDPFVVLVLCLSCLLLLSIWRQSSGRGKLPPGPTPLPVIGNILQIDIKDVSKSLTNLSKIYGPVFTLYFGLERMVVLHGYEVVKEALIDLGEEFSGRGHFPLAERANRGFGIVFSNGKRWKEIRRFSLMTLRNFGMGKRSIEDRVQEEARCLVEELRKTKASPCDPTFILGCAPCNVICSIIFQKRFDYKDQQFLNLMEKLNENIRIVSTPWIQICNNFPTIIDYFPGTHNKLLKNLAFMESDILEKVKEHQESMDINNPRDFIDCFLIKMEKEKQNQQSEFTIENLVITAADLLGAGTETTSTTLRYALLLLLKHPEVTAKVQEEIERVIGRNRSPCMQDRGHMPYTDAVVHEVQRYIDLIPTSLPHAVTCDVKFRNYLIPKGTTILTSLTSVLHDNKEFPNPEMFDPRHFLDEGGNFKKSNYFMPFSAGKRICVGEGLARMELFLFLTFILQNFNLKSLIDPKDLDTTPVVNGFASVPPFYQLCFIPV
# [9] = target: Procathepsin L (Homo sapiens, UniProt P07711); assay: Inhibition of Cathepsin L
# Sequence of Procathepsin L (P07711 whole entry): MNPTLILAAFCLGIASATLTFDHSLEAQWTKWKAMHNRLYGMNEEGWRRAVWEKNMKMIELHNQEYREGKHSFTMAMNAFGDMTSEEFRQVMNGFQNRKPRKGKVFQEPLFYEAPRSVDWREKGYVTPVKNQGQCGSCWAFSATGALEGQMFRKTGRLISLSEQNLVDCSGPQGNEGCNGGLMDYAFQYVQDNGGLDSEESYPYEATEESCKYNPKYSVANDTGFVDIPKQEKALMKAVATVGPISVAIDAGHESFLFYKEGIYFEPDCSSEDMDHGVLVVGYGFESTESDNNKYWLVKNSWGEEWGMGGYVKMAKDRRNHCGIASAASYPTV
# T1 sequence (P53634 25-134 limits assumed): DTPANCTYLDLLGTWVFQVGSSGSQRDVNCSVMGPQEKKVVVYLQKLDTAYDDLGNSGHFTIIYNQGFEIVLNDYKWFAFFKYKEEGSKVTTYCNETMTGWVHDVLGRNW
# T1 sequence (P53634 231-394 limits assumed): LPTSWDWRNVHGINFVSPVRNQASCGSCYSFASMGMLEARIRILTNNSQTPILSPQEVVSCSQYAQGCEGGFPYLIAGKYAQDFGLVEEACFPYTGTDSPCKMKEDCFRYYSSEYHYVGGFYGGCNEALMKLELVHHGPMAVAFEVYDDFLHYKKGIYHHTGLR
# T1 sequence (P53634 395-463 limits assumed): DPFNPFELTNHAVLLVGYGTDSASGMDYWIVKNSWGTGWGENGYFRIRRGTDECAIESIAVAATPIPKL
Compound,IC50 [2] [nM],remaining at 0.25 h [3] [%],also measured
CC[C@H](N)C(=O)N(C)[C@H](C#N)Cc1ccccc1,–,–,Activity [1]: 94%
N#C[C@H](Cc1ccccc1)NC(=O)CN,4790,–,–
CC[C@H](N)C(=O)N[C@H](C#N)Cc1ccc(Cl)cc1,96,70,–
N#C[C@H](Cc1ccccc1)N1CC[C@H](N)C1=O,–,–,inhibition [4]: inactive
"N#CC(Cc1ccccc1)NC(=O)[C@@H](N)Cc1ccccc1 (single isomer, unassigned; isomer B)",6300,–,–
N#CC(Cc1ccccc1)NC(=O)[C@@H](N)Cc1ccccc1 (stereo in doubt),294,–,–
CC[C@H](N)C(=O)N[C@H](C#N)CCc1ccccc1,822,74,–
CC[C@H](N)C(=O)N[C@H](C#N)Cc1ccccc1,172,80,–
N#CC(Cc1ccccc1)NC(=O)[C@@H](N)Cc1ccccc1 (stereo in doubt; 8),418,45,–
CC[C@H](N)C(=O)N[C@H](C#N)C/C=C/c1ccccc1,137,–,–
N#C[C@H](Cc1ccccc1)NC(=O)[C@@H]1CCCN1,9640,39,–
CC[C@H](N)C(=O)N[C@H](C#N)Cc1ccc(-c2ccccc2)cc1,–,–,IC50 [5]: > 20000 nM; IC50 [6]: > 10000 nM; IC50 [7]: > 10000 nM; IC50 [8]: > 20000 nM; IC50 [9]: > 10000 nM
